For orientation: ED50 means the dose at which the effect has come halfway, by size or by number of responders. As usually defined, the MIC is the lowest concentration that inhibits growth of the organism.

Consider one compound from patent US7067482B2, “Cross-linked glycopeptide-cephalosporin antibiotics” (Theravance, Inc., priority 2003, dated 2006).

≈ marks a conversion by molar mass, not a printed value.

Assay [1] concerns MRSA 33591. Description: Time-kill assay. The class given is cell-based, Staphylococcus aureus. Conditions: in 24 hours; bactericidal = >=3 log decrease in bacterial cell numbers. On the procedure: This time-kill assay is a method for measuring the rate of bactericidal activity of a test compound. These procedures are similar to those described in V. Lorian, “Antibiotics in Laboratory Medicine”, Fourth Edition, Williams and Wilkins (1996), pages 104–105. A rapid time-kill is desirable to quickly prevent bacterial colonization and reduce host tissue damage.
Bacterial inocula were prepared as described in Example 6 for determination of MIC. Bacteria were diluted in prewarmed media in shake flasks and incubated with shaking (200 rpm, 35° C.). At 0, 1, 4, and 24 hours samples were withdrawn from the flasks and bacteria were enumerated by plate counting. Subsequent to the initial sampling, a test compound to be assayed was added to the shake flask culture. Plate counts at these intervals previous to and following addition of the compound were expressed graphically in a time-kill curve. Bactericidal activity is defined as a greater than or equal to 3 log decrease (reduction greater than or equal to 99.9%) in bacterial cell numbers by 24 hours.
By comparison, vancomycin was bactericidal against MRSA 33591 at a concentration of 4 μg/mL in 24 hours.

The test system of assay [2] is methicillin-susceptible Staphylococcus aureus (MSSA 13709) and methicillin-resistant Staphylococcus aureus (MRSA 33591). Description: In vivo efficacy studies in neutropenic mice (thigh infection). Conditions: iv, 24 h, read-out: ED50 (dose required to produce 50% of the maximum reduction in thigh titre).
Assay [3] deals with MRSA 33591. The experiment in a line: Minimal inhibitory concentration (MIC), broth microdilution, MRSA 33591. Conditions: Staphylococcus aureus, read-out: MIC MRSA 33591. (Dilution methods test growth across graded concentrations, often in twofold steps.)
For another assay, the system named is MSSA 13709. Description: Minimal inhibitory concentration (MIC), broth microdilution, MSSA 13709. Conditions: Staphylococcus aureus, read-out: MIC MSSA 13709.

As to `CN[C@H](CC(C)C)C(=O)N[C@H]1C(=O)N[C@@H](CC(N)=O)C(=O)N[C@H]2C(=O)N[C@H]3C(=O)N[C@H](C(=O)N[C@H](C(=O)O)c4cc(O)cc(O)c4-c4cc3ccc4O)[C@H](O)c3ccc(c(Cl)c3)Oc3cc2cc(c3O[C@@H]2O[C@H](CO)[C@@H](O)[C@H](O)[C@H]2O[C@H]2C[C@](C)(N)[C@H](O)[C@H](C)O2)Oc2ccc(cc2Cl)[C@H]1O` [Vancomycin, vancomycin], the “concentration at which bactericidal” value with MRSA 33591 [1] stood at 4 µg/mL. The ED50 in assay [2] is 9 mg/kg. Moreover, the MIC was 2 µg/mL (≈ 1.38 µM) with MRSA 33591 [3] and 1 µg/mL (≈ 0.69 µM) in the assay on MSSA 13709.
